Experiments:
[1] = target: T1, SHP-1 (Homo sapiens, UniProt P29350); assay: SHP-1 inhibition, OMFP substrate assay; assay type: biochemical; settings: for IC50: OMFP substrate, means ± SD of three replications, PC = Na3VO4
T1 construct: made in house
Method: (§1) In addition to potency improvements, we investigated the selectivity of three representative compounds, namely, 1, 46 and 49 against other PTPs (TCPTP, SHP-1, SHP-2, LAR). […] Besides TCPTP, we tested the inhibitory activity of these compounds on other three homogenous enzymes SHP-1, SHP-2, and LAR [25].
(§2) A colorimetric assay to measure inhibition against PTP1B and TCPTP was performed in 96-well plates. Briefly, the tested compounds were solubilized in DMSO and serially diluted into concentrations for the inhibitory test. The assays were carried out in a final volume of 100 μL containing 50 mmol/L MOPS, pH 6.5, 2 mmol/L pNPP, 30 nmol/L GST-PTP1B or GST-TCPTP,and 2% DMSO, and the catalysis of pNPP was continuously monitored on a SpectraMax 340 microplate reader at 405 nm for 3 min at 30 °C. The IC50 value was calculated from the nonlinear curve fitting of the percent inhibition [inhibition (%)] vs. the inhibitor concentration using the Equation (1): Inhibition (%) = 100/[1 + (IC50/[I]k)] (1) where k is the Hill coefficient. To study the inhibition on the other PTPase family members, SHP1, SHP2 and LAR were prepared and assays were performed according to procedures described previously. Briefly, the enzymatic activity of the SHP1, SHP2 and LARwere determined at 30 °C by monitoring the dephosphorylation of substrate 3-o-methylfluorescein phosphate (OMFP), product was then detected at a 485 nm excitation wavelength and 530 nm emission wavelength by the EnVision multilabe plate reader (Perkin-Elmer Life Sciences, Boston, MA, USA). The assays were carried out in a final volume of 50 μL containing 50 mmol/L MOPS, pH 6.8, 10 μmol/L OMFP, 20 nmol/L recombinant enzyme, 2 mmol/L dithiothreitol , 1 mmol/L EDTA, and 2% DMSO. The initial rate of the dephosphorylation was presented by the early linear region of the enzymatic reaction kinetic curve, the inhibitory activity of the compound was continuously monitored.

[2] = target: T2, SHP-2 (Homo sapiens, UniProt Q06124); assay: SHP-2 inhibition, OMFP substrate assay; assay type: biochemical; settings: for IC50: OMFP substrate, means ± SD of three replications, PC = Na3VO4
T2 construct: made in house
T2 sequence (Q06124 1-593): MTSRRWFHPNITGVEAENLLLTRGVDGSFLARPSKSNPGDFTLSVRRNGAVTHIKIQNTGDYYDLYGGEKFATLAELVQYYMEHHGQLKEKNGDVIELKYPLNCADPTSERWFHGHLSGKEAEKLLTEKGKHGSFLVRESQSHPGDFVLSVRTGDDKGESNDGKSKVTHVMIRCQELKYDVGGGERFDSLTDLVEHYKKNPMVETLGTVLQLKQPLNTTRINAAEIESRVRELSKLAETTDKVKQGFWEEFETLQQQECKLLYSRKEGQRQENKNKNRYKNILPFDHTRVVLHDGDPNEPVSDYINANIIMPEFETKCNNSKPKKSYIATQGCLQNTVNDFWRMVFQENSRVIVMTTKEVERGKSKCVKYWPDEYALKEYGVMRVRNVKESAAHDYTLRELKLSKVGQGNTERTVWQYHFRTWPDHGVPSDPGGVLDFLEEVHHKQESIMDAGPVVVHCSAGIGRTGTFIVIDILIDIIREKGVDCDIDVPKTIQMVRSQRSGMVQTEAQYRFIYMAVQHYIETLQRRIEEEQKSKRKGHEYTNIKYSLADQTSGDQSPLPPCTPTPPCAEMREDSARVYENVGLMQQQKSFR
Method: as §1, §2

[3] = target: T3, PTP1B (GST-PTP1B) (Homo sapiens, UniProt P18031); assay: PTP1B inhibition, colorimetric pNPP assay; assay type: biochemical; settings: for inhibition at 20 µg/mL: PTP1B, compound at 20 μg/mL; for PTP1B inhibitory activity (in words): pNPP assay, tested at 20 μg/mL
T3 sequence (P18031 1-435): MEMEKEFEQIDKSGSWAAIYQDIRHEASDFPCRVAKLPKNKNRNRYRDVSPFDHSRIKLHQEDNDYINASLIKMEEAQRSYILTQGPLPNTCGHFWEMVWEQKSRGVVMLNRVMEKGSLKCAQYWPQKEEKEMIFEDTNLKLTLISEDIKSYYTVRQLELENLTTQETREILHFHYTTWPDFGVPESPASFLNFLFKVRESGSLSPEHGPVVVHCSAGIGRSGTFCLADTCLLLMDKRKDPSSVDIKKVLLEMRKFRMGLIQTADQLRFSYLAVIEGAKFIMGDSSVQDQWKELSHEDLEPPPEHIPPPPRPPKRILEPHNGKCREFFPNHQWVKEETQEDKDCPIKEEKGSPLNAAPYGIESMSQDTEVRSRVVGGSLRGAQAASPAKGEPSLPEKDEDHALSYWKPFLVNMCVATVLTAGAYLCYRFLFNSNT

[4] = target: T4, TCPTP (GST-TCPTP) (Homo sapiens, UniProt P17706); assay: TCPTP inhibition, colorimetric pNPP assay; assay type: biochemical; settings: for IC50: pNPP substrate, means ± SD of three replications, PC = oleanolic acid; for TCPTP/PTP1B (selectivity, fold): ratio of IC50 TCPTP to IC50 PTP1B
T4 sequence (P17706 1-415): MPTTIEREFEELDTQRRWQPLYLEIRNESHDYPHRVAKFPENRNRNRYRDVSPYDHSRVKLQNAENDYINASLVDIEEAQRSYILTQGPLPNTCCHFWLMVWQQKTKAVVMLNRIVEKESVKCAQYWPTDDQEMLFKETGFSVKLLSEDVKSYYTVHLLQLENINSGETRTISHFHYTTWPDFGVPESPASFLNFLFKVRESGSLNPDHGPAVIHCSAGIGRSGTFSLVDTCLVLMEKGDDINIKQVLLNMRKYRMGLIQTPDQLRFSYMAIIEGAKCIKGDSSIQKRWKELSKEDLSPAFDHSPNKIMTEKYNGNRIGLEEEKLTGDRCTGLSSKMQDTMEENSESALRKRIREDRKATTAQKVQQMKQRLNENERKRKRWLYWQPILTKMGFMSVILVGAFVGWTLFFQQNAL
Method: as §1, §2

[5] = target: T5, LAR (Homo sapiens, UniProt P10586); assay: LAR inhibition, OMFP substrate assay; assay type: biochemical; settings: NA = no activity (inhibitory ratio lower than 50% at the dose of 20 μg/mL), PC = Na3VO4
T5 sequence (P10586 1352-1607 limits assumed): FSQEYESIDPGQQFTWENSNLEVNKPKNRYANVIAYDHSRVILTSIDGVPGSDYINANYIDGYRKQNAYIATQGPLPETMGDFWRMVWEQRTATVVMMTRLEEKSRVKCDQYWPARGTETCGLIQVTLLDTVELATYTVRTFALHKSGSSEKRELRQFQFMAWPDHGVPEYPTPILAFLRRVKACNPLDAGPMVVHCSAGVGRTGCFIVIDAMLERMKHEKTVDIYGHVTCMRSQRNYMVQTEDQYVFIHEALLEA
Method: as §1
as §2, with “To study the inhibition on the other PTPase family members, SHP1, SHP2 and LAR were prepared and assays were performed according to procedures described previously.” left out, “The assays were carried out in a final volume of 50 μL containing 50 mmol/L MOPS, pH 6.8, 10 μmol/L OMFP, 20 nmol/L recombinant enzyme, 2 mmol/L dithiothreitol , 1 mmol/L EDTA, and 2% DMSO. The initial rate of the dephosphorylation was presented by the early linear region of the enzymatic reaction kinetic curve, the inhibitory activity of the compound was continuously monitored.” left out

[6] = pNPP substrate, means ± SD of three replications, OA/PC = oleanolic acid positive control

T1 sequence (P29350 whole entry): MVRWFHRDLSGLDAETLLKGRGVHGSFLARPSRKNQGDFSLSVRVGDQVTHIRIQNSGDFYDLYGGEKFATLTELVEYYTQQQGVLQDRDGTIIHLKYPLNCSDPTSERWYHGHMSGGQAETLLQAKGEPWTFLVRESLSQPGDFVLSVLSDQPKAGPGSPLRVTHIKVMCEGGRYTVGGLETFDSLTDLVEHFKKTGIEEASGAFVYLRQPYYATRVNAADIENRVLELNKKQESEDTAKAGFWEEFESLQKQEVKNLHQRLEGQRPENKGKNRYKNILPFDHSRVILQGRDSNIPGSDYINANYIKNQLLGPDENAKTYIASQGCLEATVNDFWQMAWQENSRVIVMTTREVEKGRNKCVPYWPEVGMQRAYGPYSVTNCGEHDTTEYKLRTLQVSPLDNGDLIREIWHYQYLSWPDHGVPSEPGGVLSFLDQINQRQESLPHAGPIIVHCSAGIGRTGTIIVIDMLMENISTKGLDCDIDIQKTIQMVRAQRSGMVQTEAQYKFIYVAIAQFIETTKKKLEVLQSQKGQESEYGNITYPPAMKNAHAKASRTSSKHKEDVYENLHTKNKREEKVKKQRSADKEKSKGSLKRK

Row | Compound | inhibition at 20 µg/mL ([3]; pNPP substrate) | IC50 [3, 6] | melting point | also measured
1 | O=C(O)c1ccc(C2Nc3cccc4cccc(c34)N2)cc1 [Compound 1, 4-(2,3-dihydro-1H-perimidin-2-yl)benzoic acid] | 98.6% | 8.34 ± 1.07 µM |  | IC50 [1]: 23.3 ± 2.03 µM; IC50 [2]: 31.2 ± 7.72 µM; IC50 [4]: 4.83 ± 0.9 µM; TCPTP/PTP1B (selectivity, fold) [4]: 0.58
2 | O=C(O)C(=O)Nc1ccc(C2Nc3cccc4cccc(c34)N2)cc1 [Compound 30, 2-{[4-(2,3-Dihydro-1H-perimidin-2-yl)phenyl]amino}-2-oxoacetic acid] | 0.51% |  | > 265 °C | PTP1B inhibitory activity (in words) [3]: no activity
3 | O=C(O)CC(=O)Nc1ccc(C2Nc3cccc4cccc(c34)N2)cc1 [Compound 31, 3-{[4-(2,3-Dihydro-1H-perimidin-2-yl)phenyl]amino}-3-oxopropanoic acid] | 96.8% | 6.45 ± 0.42 µM | 221.3 to 223.4 °C | 
4 | O=C(O)CCCC(=O)Nc1ccc(C2Nc3cccc4cccc(c34)N2)cc1 [Compound 33, 5-{[4-(2,3-Dihydro-1H-perimidin-2-yl)phenyl]amino}-5-oxopentanoic acid] | 95.1% | 6.91 ± 1.17 µM | > 265 °C | 
5 | CC(C)(C)OC(=O)NCCC(=O)Nc1ccc(C2Nc3cccc4cccc(c34)N2)cc1 [Compound 34] | 12.6% |  | 111.1 to 113.7 °C | PTP1B inhibitory activity (in words) [3]: no inhibitory activity
6 | NCCC(=O)Nc1ccc(C2Nc3cccc4cccc(c34)N2)cc1 [Compound 35] | 0.29% |  | 239.7 to 241.2 °C | PTP1B inhibitory activity (in words) [3]: no inhibitory activity
7 | O=C(O)c1ccc(C2Nc3cccc4cccc(c34)N2)nc1 [Compound 41] | 96.6% | 10.8 ± 0.69 µM | 100.7 to 101.3 °C | 
8 | COC(=O)CNC(=O)c1ccc(C2Nc3cccc4cccc(c34)N2)nc1 [Compound 42] | 42.1% |  | 183.6 to 184.7 °C | 
9 | COC(=O)CCCNC(=O)c1ccc(C2Nc3cccc4cccc(c34)N2)nc1 [Compound 43, Methyl 4-[6-(2,3-dihydro-1H-perimidin-2-yl)nicotinamido]butanoate] | 4.67% |  | 100.1 to 105.4 °C | 
10 | CCOC(=O)CCCCNC(=O)c1ccc(C2Nc3cccc4cccc(c34)N2)nc1 [Compound 44, Ethyl 5-[6-(2,3-dihydro-1H-perimidin-2-yl)nicotinamido]pentanoate] | 4.74% |  | 109.4 to 113.5 °C | 
11 | CCOC(=O)CCCCCNC(=O)c1ccc(C2Nc3cccc4cccc(c34)N2)nc1 [Compound 45, Ethyl 6-[6-(2,3-dihydro-1H-perimidin-2-yl)nicotinamido]hexanoate] | 10.8% |  | 119.3 to 123.8 °C | 
12 | O=C(O)CCCNC(=O)c1ccc(C2Nc3cccc4cccc(c34)N2)nc1 [Compound 47, 4-[6-(2,3-Dihydro-1H-perimidin-2-yl)nicotinamido]butanoic acid] | 98.5% | 15.2 ± 1.41 µM | 95.3 to 99 °C | 
13 | O=C(O)CCCCNC(=O)c1ccc(C2Nc3cccc4cccc(c34)N2)nc1 [Compound 48, 5-[6-(2,3-Dihydro-1H-perimidin-2-yl)nicotinamido]pentanoic acid] | 91.5% | 3.56 ± 0.13 µM | 117.1 to 120.3 °C | 
14 | O=C(O)CCCCCNC(=O)c1ccc(C2Nc3cccc4cccc(c34)N2)nc1 [Compound 49, 6-[6-(2,3-Dihydro-1H-perimidin-2-yl)nicotinamido]hexanoic acid] | 99.4% | 0.59 ± 0.05 µM | 86.7 to 88.4 °C | IC50 [1]: 2.72 ± 0.3 µM; selectivity for PTP1B over SHP-1 ([1]; from IC50 values): about 4 fold; IC50 [2]: 2.5 ± 0.22 µM; selectivity for PTP1B over SHP-2 ([2]; from IC50 values): about 4 fold; IC50 PTP1B [3, 6]: submicromolar; IC50 [4]: 1.24 ± 0.12 µM; TCPTP/PTP1B (selectivity, fold) [4]: 2.10; IC50 LAR [5]: no visible activities

From paper PMC6271978, “1H-2,3-Dihydroperimidine Derivatives: A New Class of Potent Protein Tyrosine Phosphatase 1B Inhibitors” (Molecules, 2013)
